Reference: the NIST ThermoML archive (doi:10.1021/je700260f)
± gives the expanded uncertainty stated by the source.

Settings: 283.15 K, Liquid, Vibrating tube method

FC(C(F)(F)F)C(F)(F)F [1,1,1,2,3,3,3-heptafluoropropane]
Settings	mass density [kg/m3]
10458 kPa	1500.1 ± 1.6
10488 kPa	1500.2 ± 1.6
10528 kPa	1500.3 ± 1.6
10559 kPa	1500.4 ± 1.6
10588 kPa	1500.6 ± 1.6
10774 kPa	1501.4 ± 1.6
10816 kPa	1501.5 ± 1.6
10838 kPa	1501.7 ± 1.6
10868 kPa	1501.8 ± 1.6
10899 kPa	1502 ± 1.6
10925 kPa	1502.1 ± 1.6
10959 kPa	1502.2 ± 1.6
10981 kPa	1502.4 ± 1.6
11024 kPa	1502.5 ± 1.6
11055 kPa	1502.6 ± 1.6
12114 kPa	1507 ± 1.6
12149 kPa	1507.1 ± 1.6
12177 kPa	1507.2 ± 1.6
12214 kPa	1507.4 ± 1.6
12245 kPa	1507.6 ± 1.6
12281 kPa	1507.6 ± 1.6
12311 kPa	1507.7 ± 1.6
12342 kPa	1507.9 ± 1.6
12373 kPa	1508 ± 1.6
12405 kPa	1508.2 ± 1.6
12437 kPa	1508.3 ± 1.6
12476 kPa	1508.3 ± 1.6
12508 kPa	1508.5 ± 1.6
12544 kPa	1508.6 ± 1.6
12576 kPa	1508.7 ± 1.6
12608 kPa	1509 ± 1.6
12641 kPa	1509.1 ± 1.6
12677 kPa	1509.2 ± 1.6
12709 kPa	1509.4 ± 1.6
12748 kPa	1509.5 ± 1.6
12780 kPa	1509.7 ± 1.6
13258 kPa	1511.5 ± 1.6
13353 kPa	1512 ± 1.6
14612 kPa	1516.6 ± 1.6
14643 kPa	1516.8 ± 1.6
14673 kPa	1516.9 ± 1.6
14713 kPa	1517.2 ± 1.6
14739 kPa	1517.4 ± 1.6
14769 kPa	1517.4 ± 1.6
14799 kPa	1517.6 ± 1.6
14834 kPa	1517.7 ± 1.6
14886 kPa	1517.8 ± 1.6
14927 kPa	1517.9 ± 1.6
14957 kPa	1518.1 ± 1.6
14998 kPa	1518.3 ± 1.6
15045 kPa	1518.4 ± 1.6
15086 kPa	1518.5 ± 1.6
15117 kPa	1518.8 ± 1.6
15153 kPa	1518.8 ± 1.6
15184 kPa	1518.9 ± 1.6
15215 kPa	1519.2 ± 1.6
15256 kPa	1519.2 ± 1.6
15287 kPa	1519.4 ± 1.6
15328 kPa	1519.4 ± 1.6
15365 kPa	1519.5 ± 1.6
15400 kPa	1519.8 ± 1.6
15442 kPa	1519.9 ± 1.6
15474 kPa	1520 ± 1.6
15505 kPa	1520 ± 1.6
15536 kPa	1520.4 ± 1.6
15572 kPa	1520.5 ± 1.6
15607 kPa	1520.5 ± 1.6
15643 kPa	1520.7 ± 1.6
15673 kPa	1520.8 ± 1.6
15714 kPa	1521 ± 1.6
16087 kPa	1522.4 ± 1.6
16114 kPa	1522.4 ± 1.6
16151 kPa	1522.5 ± 1.6
16175 kPa	1522.7 ± 1.6
16606 kPa	1524.3 ± 1.6
16678 kPa	1524.6 ± 1.6
16711 kPa	1524.5 ± 1.6
17447 kPa	1527.3 ± 1.6
17481 kPa	1527.3 ± 1.6
17515 kPa	1527.4 ± 1.6
17545 kPa	1527.7 ± 1.6
17593 kPa	1527.7 ± 1.6
18341 kPa	1530.5 ± 1.6
18418 kPa	1530.6 ± 1.6
18457 kPa	1530.8 ± 1.6
18487 kPa	1530.8 ± 1.6
18526 kPa	1531.1 ± 1.6
18571 kPa	1531.1 ± 1.6
19435 kPa	1534.2 ± 1.6
19479 kPa	1534.3 ± 1.6
19508 kPa	1534.3 ± 1.6
19536 kPa	1534.5 ± 1.6
19574 kPa	1534.6 ± 1.6
19602 kPa	1534.7 ± 1.6
19640 kPa	1534.9 ± 1.6
19673 kPa	1535 ± 1.6
19706 kPa	1535.1 ± 1.6
19739 kPa	1535.3 ± 1.6
19785 kPa	1535.4 ± 1.6
19809 kPa	1535.4 ± 1.6
19854 kPa	1535.6 ± 1.6
19878 kPa	1535.6 ± 1.6
19911 kPa	1535.8 ± 1.6
19949 kPa	1535.8 ± 1.6
19977 kPa	1536.1 ± 1.6
20004 kPa	1536 ± 1.6
20033 kPa	1536.1 ± 1.6
20218 kPa	1536.8 ± 1.6
20257 kPa	1536.9 ± 1.6
20300 kPa	1537.1 ± 1.6
20333 kPa	1537.1 ± 1.6
20396 kPa	1537.4 ± 1.6
20492 kPa	1537.8 ± 1.6
20536 kPa	1538 ± 1.6
20566 kPa	1538 ± 1.6
20605 kPa	1538.1 ± 1.6
20635 kPa	1538.2 ± 1.6
20671 kPa	1538.4 ± 1.6
20709 kPa	1538.4 ± 1.6
20746 kPa	1538.6 ± 1.6
20776 kPa	1538.6 ± 1.6
20810 kPa	1538.7 ± 1.6
20840 kPa	1538.9 ± 1.6
20879 kPa	1539.1 ± 1.7
20918 kPa	1539.3 ± 1.7
20961 kPa	1539.3 ± 1.7
20991 kPa	1539.4 ± 1.7
21029 kPa	1539.6 ± 1.7
21058 kPa	1539.4 ± 1.7
21099 kPa	1539.7 ± 1.7
21129 kPa	1539.8 ± 1.7
21172 kPa	1539.9 ± 1.7
21208 kPa	1540.1 ± 1.7
21242 kPa	1540.3 ± 1.7
21281 kPa	1540.4 ± 1.7
21310 kPa	1540.4 ± 1.7
21350 kPa	1540.7 ± 1.7
21418 kPa	1540.9 ± 1.7
21453 kPa	1540.9 ± 1.7
21503 kPa	1541.2 ± 1.7
21541 kPa	1541.2 ± 1.7
21571 kPa	1541.3 ± 1.7
21610 kPa	1541.4 ± 1.7
21645 kPa	1541.5 ± 1.7
21684 kPa	1541.6 ± 1.7
21709 kPa	1541.6 ± 1.7
21753 kPa	1541.9 ± 1.7
21784 kPa	1542 ± 1.7
21834 kPa	1542.2 ± 1.7
21870 kPa	1542.3 ± 1.7
21901 kPa	1542.3 ± 1.7
21936 kPa	1542.5 ± 1.7
21972 kPa	1542.7 ± 1.7
22011 kPa	1542.7 ± 1.7
22041 kPa	1542.8 ± 1.7
22080 kPa	1543.1 ± 1.7
22115 kPa	1543.2 ± 1.7
22145 kPa	1543.2 ± 1.7
22190 kPa	1543.1 ± 1.7
22231 kPa	1543.5 ± 1.7
22261 kPa	1543.6 ± 1.7
22302 kPa	1543.7 ± 1.7
22349 kPa	1543.9 ± 1.7
22379 kPa	1543.9 ± 1.7
22424 kPa	1544 ± 1.7
22459 kPa	1544.1 ± 1.7
22539 kPa	1544.5 ± 1.7
22579 kPa	1544.6 ± 1.7
22710 kPa	1545.1 ± 1.7
22747 kPa	1545.1 ± 1.7
22782 kPa	1545.2 ± 1.7
22829 kPa	1545.3 ± 1.7
22864 kPa	1545.6 ± 1.7
22974 kPa	1545.8 ± 1.7
23050 kPa	1545.9 ± 1.7
23131 kPa	1546.2 ± 1.7
23178 kPa	1546.5 ± 1.7
23230 kPa	1546.7 ± 1.7
23275 kPa	1546.8 ± 1.7
23311 kPa	1546.9 ± 1.7
23342 kPa	1546.9 ± 1.7
23378 kPa	1547.1 ± 1.7
23418 kPa	1547.2 ± 1.7
23678 kPa	1548 ± 1.7
23750 kPa	1548.3 ± 1.7
23792 kPa	1548.5 ± 1.7
24059 kPa	1549.2 ± 1.7
24099 kPa	1549.4 ± 1.7
24146 kPa	1549.5 ± 1.7
24192 kPa	1549.5 ± 1.7
24228 kPa	1549.8 ± 1.7
24269 kPa	1549.9 ± 1.7
24309 kPa	1550.1 ± 1.7
24608 kPa	1550.8 ± 1.7
24649 kPa	1551 ± 1.7
24695 kPa	1551.2 ± 1.7
24731 kPa	1551.2 ± 1.7
24761 kPa	1551.4 ± 1.7
24807 kPa	1551.5 ± 1.7
24838 kPa	1551.8 ± 1.7
24869 kPa	1551.8 ± 1.7
24920 kPa	1551.9 ± 1.7
24950 kPa	1552 ± 1.7
24990 kPa	1552.1 ± 1.7
25031 kPa	1552.2 ± 1.7
